# In patent US4346078A, “Novel anticoagulant agmatine derivatives and process for the preparation thereof” (Richter Gedeon Vegyeszeti Gyar Rt., priority 1980, dated 1982):
# Where a SMILES comes first, the peptide text is derived from it. [ ]: non-standard residue; d: D form. The star is where a group is joined. dPhg = N[C@@H](C(=O)O)c1ccccc1; Agmatine = N=C(N)NCCCCN*; Bn = c1ccc(C*)cc1
# What was measured:
# Human Thrombin [1] = target: T1, Human Thrombin (Homo sapiens, UniProt P00734); assay: Fibrinogen-thrombin reaction: amount required to double the thrombin time of fibrinogen; type: biochemical; details: for Amount of agmatine derivative required to double the thrombin-time of fibrinogen: bovine fibrinogen, human thrombin 5 NIH Unit/ml, pH 7.4, thrombin time without derivative 15 seconds; for relative activity: related to tosyl-agmatine, taken as unity
# T1 construct: 0.1 ml US Standard Human Thrombin 5 NIH Unit/ml
# Excerpt: It is known that the simple acyl derivatives of agmatine (1-amino-4-guanidino-butane), as for instance tosyl-agmatine (1-[p-toluene-sulfonylamido]-4-guanidino-butane), have the ability to inhibit the proteolytic reactions of both tripsin and thrombin (Lorand and Rule: Nature, 190, 722, 1961; Rule and Lorand: Biochim. Biophys. Acta, 81, 130, 1964). According to these authors tosyl-agmatine delays the clotting of blood plasma, and also is assumed to suppress the fibrinogen-thrombin reaction. In our own experiments, however, the fibrinogen-thrombin reaction was affected by tosyl-agmatine to a negligible degree: 0.7 mg of tosyl-agmatine is required to double (from 15 sec to 30 sec) the thrombin time of 1 ml of a solution containing 1.25 mg of fibrinogen and 1.25 NIH units of thrombin ("Minimum Requirements of Dried Thrombin", 2nd rev. Div. Biol. Conf. Natl. Inst. Health, Bethesda, Md., United States 1946).
# The potency of the substances is defined by the amount of the compound required to double the thrombin time of fibrinogen. Furthermore, the relative potency of the novel agmatine derivatives related to tosyl-agmatine (the activity of the last-mentioned drug is taken as unity) is listed, too.
# The potency of the compounds was assayed in the following system:
# 0.2 ml of 0.5 percent bovine fibrinogen in 0.9 percent NaCl solution,
# 0.1 ml of tris-(hydroxymethyl)-methylamine hydrochloride buffer solution (pH=7.4) containing the agmatine derivative, and
# 0.1 ml US Standard Human Thrombin 5 NIH Unit/ml.
# The thrombin time of the system devoid of agmatine derivative is 15 seconds.
# Human Thrombin [2] = target: T1, Human Thrombin; assay: Relative thrombin-time in isolated fibrinogen-thrombin reaction mixture A; type: biochemical; details: system A, without inhibitor = 1
# Procedure: (§1) In in vitro trials the effect of D-Phe-Pro-Agm.2HCl (in formula I, X is a D-phenylalanine moiety, B is chloride ion and n=2) and heparin was studied in an isolated system, in a fibrinogen-thrombin reaction mixture A and in human citrate plasma B:
# 0.2 ml of 0.5 percent bovine fibrinogen in 0.9 percent saline solution,
# 0.1 ml US Standard Human Thrombin 10 NIH Unit/ml.
# Human Thrombin [3] = target: T1, Human Thrombin; assay: Relative thrombin-time in human citrate plasma B; type: biochemical; details: system B human citrate plasma, without inhibitor = 1
# Procedure: as §1
# 0.2 ml of human citrate plasma
# 0.1 ml US Standard Human Thrombin 10 NIH U/ml.
# gray rabbits = assay: In vivo prothrombin activity of the blood assayed according to Quick; parameters: species or system rabbit
# Procedure: In in vivo trials gray rabbits (2 to 3 kg) were administered subcutaneously:
# b. 10 mg/kg D-Phe-Pro-Agm.2HCl, or
# c. 5 mg/kg heparin and 10 mg/kg D-Phe-Pro-Agm.2HCl.
# [4] = heparin 0.05 μg/ml reaction mixture
# [5] = heparin 0.10 μg/ml reaction mixture
# [6] = heparin 0.20 μg/ml reaction mixture
# [7] = D-Phe-Pro-Agm.2HCl 0.10 μg/ml reaction mixture
compound,measurement,setting,value
"Cc1ccc(S(=O)(=O)NCCCCNC(=N)N)cc1 [Tosyl--agmatine, 1-[p-toluene-sulfonylamido]-4-guanidino-butane, reference compound]",amount required to double (from 15 sec to 30 sec) the thrombin time,Human Thrombin [1]; 1 ml of a solution containing 1.25 mg of fibrinogen and 1.25 NIH units of thrombin,0.7 mg
same,Amount of agmatine derivative required to double the thrombin-time of fibrinogen,Human Thrombin [1],280 μ/reaction mixture
same,relative activity,Human Thrombin [1],1
"ClOCl.N=C(N)NCCCCNC(=O)[C@@H]1CCCN1C(=O)[C@H](N)COCc1ccccc1 [H--D--Ser(Bzl)--Pro--Agm, O-Benzyl-D-seryl-L-prolyl-agmatine-dichlorohydrate] (H-[dS](Bn)-Pro-Agmatine)",Amount of agmatine derivative required to double the thrombin-time of fibrinogen,Human Thrombin [1],0.7 μ/reaction mixture
same,relative activity,Human Thrombin [1],400
Heparin,"Relative thrombin-time, alone",Human Thrombin [2]; [4],1.1
same,"Relative thrombin-time, alone",Human Thrombin [2]; [5],1.5
same,"Relative thrombin-time, alone",Human Thrombin [2]; [6],2.0
same,"Relative thrombin-time, alone",Human Thrombin [3]; [4],1.0
same,"Relative thrombin-time, alone",Human Thrombin [3]; [5],2.0
same,"Relative thrombin-time, alone",Human Thrombin [3]; [6],3.8
same,prothrombin activity of the blood,gray rabbits; 5 mg/kg heparin subcutaneously,practically unaltered
"ClOCl.N=C(N)NCCCCNC(=O)[C@@H]1CCCN1C(=O)[C@H](N)Cc1ccccc1 [H--D--Phe--Pro--Agm, D-Phenylalanyl-L-prolyl-agmatine-dichlorohydrate] (H-[dF]-Pro-Agmatine)",anticoagulant potency (in words),Human Thrombin [1],extremely high activity
same,Amount of agmatine derivative required to double the thrombin-time of fibrinogen,Human Thrombin [1],0.12 μ/reaction mixture
same,relative activity,Human Thrombin [1],2333
same,"Relative thrombin-time, alone",Human Thrombin [2]; [7],2.5
same,"Relative thrombin-time, alone",Human Thrombin [2]; D-Phe-Pro-Agm.2HCl 0.20 μg/ml reaction mixture,4.0
same,"Relative thrombin-time, alone",Human Thrombin [3]; D-Phe-Pro-Agm.2HCl 0.05 μg/ml reaction mixture,2.2
same,"Relative thrombin-time, alone",Human Thrombin [3]; [7],3.4
same,prothrombin activity of the blood,gray rabbits; 10 mg/kg D-Phe-Pro-Agm.2HCl subcutaneously,practically unaltered
"ClOCl.N=C(N)NCCCCNC(=O)[C@@H]1CCCN1C(=O)[C@H](N)c1ccccc1 [H--D--Phg--Pro--Agm, D-Phenylglycyl-L-prolyl-agmatine-dichlorohydrate] (H-[dPhg]-Pro-Agmatine)",Amount of agmatine derivative required to double the thrombin-time of fibrinogen,Human Thrombin [1],1.4 μ/reaction mixture
same,relative activity,Human Thrombin [1],200
